Test results published in patent publication US20220380319A1 (Bial - R&D Investments, S.A., priority 2019, published 2022).
In brackets after ≈: the same amount, converted by molar mass.

What was measured:
acid ceramidase = target: T1, acid ceramidase (Homo sapiens, UniProt Q13510); experiment: Acid ceramidase inhibition, biochemical fluorescent assay with cell lysates overexpressing acid ceramidase, substrate Rbm14-12; settings: substrate Rbm14-12 6.3 μM, pH 4.5, 1 hr preincubation at RT
T1 construct: Cell lysates overexpressing acid ceramidase were used as the enzyme source; expressed in transfected cells
T1 sequence (Q13510 22-395): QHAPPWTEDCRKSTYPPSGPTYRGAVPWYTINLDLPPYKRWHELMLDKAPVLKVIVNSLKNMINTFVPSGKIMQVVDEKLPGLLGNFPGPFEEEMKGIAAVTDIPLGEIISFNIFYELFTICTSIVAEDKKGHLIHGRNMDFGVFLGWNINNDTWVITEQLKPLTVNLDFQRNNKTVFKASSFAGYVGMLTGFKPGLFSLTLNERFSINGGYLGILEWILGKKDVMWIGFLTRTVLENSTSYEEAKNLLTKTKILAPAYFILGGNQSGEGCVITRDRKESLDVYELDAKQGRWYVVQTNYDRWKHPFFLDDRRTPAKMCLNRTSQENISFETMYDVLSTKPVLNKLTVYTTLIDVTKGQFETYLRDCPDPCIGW
Description: The ability of exemplary compounds to inhibit acid ceramidase was measured.
Cell lysates overexpressing acid ceramidase were used as the enzyme source for compound potency determination in a biochemical fluorescent assay. Briefly, compounds were preincubated with 10 μg protein of cell lysates in a dose-response manner for 1 hr at RT in the assay buffer containing 25 mM NaAC and 100 mM NaCl, pH 4.5. The reaction was initiated by the addition of substrate Rbm14-12 at a final concentration of 6.3 μM. The reaction was run at RT for 1 hr before it was stopped by the addition of the stopping buffer containing 20% methanol (v/v), 1 mg/ml NaIO4, 0.1 M glycine, pH 10.6. The samples were incubated with the stopping buffer at RT for 1 hr to allow the fluorescent product to be formed. Finally, the plate was read with SpectraMax i3 plate reader (Molecular Devices) at ex360 nm and em446 nm. Data were collected and used to determine the IC50 values of compounds by curve fitting to the four-parameter inhibition equation.

[1] = Compound solubility in water

COc1ccc2c(c1)ncn2C(=O)NCCc1ccccc1 [Example 25a, 5-Methoxy-N-phenethyl-1H-benzo[d]imidazole-1-carboxamide]
IC50 (acid ceramidase): < 200 nM
solubility [1]: 2.6 µg/mL (≈ 8.8 µM)

COc1ccc2ncn(C(=O)NCCc3ccccc3)c2c1 [Example 25b, 6-methoxy-N-phenethyl-1H-benzo[d]imidazole-1-carboxamide]
IC50 (acid ceramidase): < 200 nM
solubility [1]: 15 µg/mL (≈ 50.8 µM)

O=C(NCCc1ccccc1)n1cnc2cc(C(F)(F)F)ccc21 [Example 26a, N-Phenethyl-5-(trifluoromethyl)-1H-benzo[d]imidazole-1-carboxamide]
IC50 (acid ceramidase): < 200 nM
solubility [1]: 0.5 µg/mL (≈ 1.5 µM)

O=C(NCCc1ccccc1)n1cnc2ccc(C(F)(F)F)cc21 [Example 26b, N-phenethyl-6-(trifluoromethyl)-1H-benzo[d]imidazole-1-carboxamide]
IC50 (acid ceramidase): < 200 nM
solubility [1]: 2.6 µg/mL (≈ 7.8 µM)

COc1cccc2c1ncn2C(=O)NCCc1ccccc1 [Example 27, 4-Methoxy-N-phenethyl-1H-benzo[d]imidazole-1-carboxamide]
IC50 (acid ceramidase): < 200 nM
solubility [1]: 7.8 µg/mL (≈ 26.4 µM)

COc1nc2cc(N3CCOCC3)ccc2n1C(=O)NCCc1ccccc1 [Example 29b, 2-methoxy-5-morpholino-N-phenethyl-1H-benzo[d]imidazole-1-carboxamide]
IC50 (acid ceramidase): 200 to 1000 nM
solubility [1]: 3.6 µg/mL (≈ 9.46 µM)

COc1nc2cc(-c3cccnc3)ccc2n1C(=O)NCCc1ccccc1 [Example 30a, 2-Methoxy-N-phenethyl-5-(pyridin-3-yl)-1H-benzo[d]imidazole-1-carboxamide]
IC50 (acid ceramidase): < 200 nM
solubility [1]: 1.6 µg/mL (≈ 4.3 µM)

COc1nc2ccc(-c3cccnc3)cc2n1C(=O)NCCc1ccccc1 [Example 30b, 2-methoxy-N-phenethyl-6-(pyridin-3-yl)-1H-benzo[d]imidazole-1-carboxamide]
IC50 (acid ceramidase): < 200 nM
solubility [1]: 3.9 µg/mL (≈ 10.5 µM)

COc1nc2ccc(-c3cncnc3)cc2n1C(=O)NCCc1ccccc1 [Example 31a, 2-Methoxy-N-phenethyl-6-(pyrimidin-5-yl)-1H-benzo[d]imidazole-1-carboxamide]
IC50 (acid ceramidase): < 200 nM
solubility [1]: 7.1 µg/mL (≈ 19 µM)

COc1nc2cc(-c3cncnc3)ccc2n1C(=O)NCCc1ccccc1 [Example 31b, 2-methoxy-N-phenethyl-5-(pyrimidin-5-yl)-1H-benzo[d]imidazole-1-carboxamide]
IC50 (acid ceramidase): < 200 nM
solubility [1]: 8.6 µg/mL (≈ 23 µM)

Cn1c(=O)n(C(=O)NCCc2ccccc2)c2cc(-c3cncnc3)ccc21 [Example 32a, 3-Methyl-2-oxo-N-phenethyl-6-(pyrimidin-5-yl)-2,3-dihydro-1H-benzo[d]imidazole-1-carboxamide]
IC50 (acid ceramidase): > 1000 nM
solubility [1]: 0.9 µg/mL (≈ 2.41 µM)

Cn1c(=O)n(C(=O)NCCc2ccccc2)c2ccc(-c3cncnc3)cc21 [Example 32b, 3-methyl-2-oxo-N-phenethyl-5-(pyrimidin-5-yl)-2,3-dihydro-1H-benzo[d]imidazole-1-carboxamide]
IC50 (acid ceramidase): > 1000 nM
solubility [1]: 0.3 µg/mL (≈ 0.803 µM)

COc1nc2c(C3CCN(C)CC3)cccc2n1C(=O)NCCc1ccccc1 [Example 33, 2-Methoxy-4-(1-methylpiperidin-4-yl)-N-phenethyl-1H-benzo[d]imidazole-1-carboxamide]
IC50 (acid ceramidase): 200 to 1000 nM
solubility [1]: 27 µg/mL (≈ 68.8 µM)

O=C(NCCc1ccccc1)n1c(OC2CC2)nc2ccccc21 [Example 34, 2-Cyclopropoxy-N-phenethyl-1H-benzo[d]imidazole-1-carboxamide]
IC50 (acid ceramidase): < 200 nM
solubility [1]: 0.5 µg/mL (≈ 1.56 µM)

CC(C)Oc1nc2ccccc2n1C(=O)NCCc1ccccc1 [Example 35, 2-iso-Propoxy-N-phenethyl-1H-benzo[d]imidazole-1-carboxamide]
IC50 (acid ceramidase): < 200 nM
solubility [1]: 0.7 µg/mL (≈ 2.16 µM)

CCOc1nc2ccccc2n1C(=O)NCCc1ccccc1 [Example 36, 2-Ethoxy-N-phenethyl-1H-benzo[d]imidazole-1-carboxamide]
IC50 (acid ceramidase): < 200 nM
solubility [1]: 8.4 µg/mL (≈ 27.2 µM)

O=C(NCCc1ccccc1)n1c(Oc2ccccc2)nc2ccccc21 [Example 37, N-Phenethyl-2-phenoxy-1H-benzo[d]imidazole-1-carboxamide]
IC50 (acid ceramidase): < 200 nM
solubility [1]: 0.2 µg/mL (≈ 0.56 µM)

COc1cc2ncn(C(=O)NCCc3ccccc3)c2cc1N1CCOCC1 [Example 38a, 5-Methoxy-6-morpholino-N-phenethyl-1H-benzo[d]imidazole-1-carboxamide]
IC50 (acid ceramidase): < 200 nM
solubility [1]: 20.4 µg/mL (≈ 53.6 µM)

COc1cc2c(cc1N1CCOCC1)ncn2C(=O)NCCc1ccccc1 [Example 38b, 6-methoxy-5-morpholino-N-phenethyl-1H-benzo[d]imidazole-1-carboxamide]
IC50 (acid ceramidase): < 200 nM
solubility [1]: 18.3 µg/mL (≈ 48.1 µM)

COc1cc(N2CCOCC2)cc2c1ncn2C(=O)NCCc1ccccc1 [Example 39, 4-Methoxy-6-morpholino-N-phenethyl-1H-benzo[d]imidazole-1-carboxamide]
IC50 (acid ceramidase): < 200 nM
solubility [1]: 16.3 µg/mL (≈ 42.8 µM)

COc1c(N2CCOCC2)ccc2c1ncn2C(=O)NCCc1ccccc1 [Example 40, 4-Methoxy-5-morpholino-N-phenethyl-1H-benzo[d]imidazole-1-carboxamide]
IC50 (acid ceramidase): < 200 nM
solubility [1]: 10.5 µg/mL (≈ 27.6 µM)

O=C(NCCN1CCOCC1)n1cnc2ccccc21 [Example 41, N-(2-Morpholinoethyl)-1H-benzo[d]imidazole-1-carboxamide]
IC50 (acid ceramidase): > 1000 nM
solubility [1]: 32 µg/mL (≈ 117 µM)

O=C(NCCOCc1ccccc1)n1cnc2ccccc21 [Example 42, N-(2-(Benzyloxy)ethyl)-1H-benzo[d]imidazole-1-carboxamide]
IC50 (acid ceramidase): < 200 nM
solubility [1]: 17.7 µg/mL (≈ 59.9 µM)

O=C(NCCCOc1ccccc1)n1cnc2ccccc21 [Example 43, N-(3-Phenoxypropyl)-1H-benzo[d]imidazole-1-carboxamide]
IC50 (acid ceramidase): < 200 nM
solubility [1]: 3.5 µg/mL (≈ 11.9 µM)

CN1CCC(c2cccc3c2ncn3C(=O)NCCCc2ccccc2)CC1 [Example 44, 4-(1-Methylpiperidin-4-yl)-N-(3-phenylpropyl)-1H-benzo[d]imidazole-1-carboxamide]
IC50 (acid ceramidase): < 200 nM
solubility [1]: 23.2 µg/mL (≈ 61.6 µM)

CN1CCC(c2cccc3c2ncn3C(=O)NCCOc2ccccc2)CC1 [Example 45, 4-(1-Methylpiperidin-4-yl)-N-(2-phenoxyethyl)-1H-benzo[d]imidazole-1-carboxamide]
IC50 (acid ceramidase): < 200 nM
solubility [1]: 23.5 µg/mL (≈ 62.1 µM)

O=C(NCCOc1ccccc1)n1cnc2cc(C(F)(F)F)ccc21 [Example 46a, N-(2-Phenoxyethyl)-5-(trifluoromethyl)-1H-benzo[d]imidazole-1-carboxamide]
IC50 (acid ceramidase): < 200 nM
solubility [1]: 0.4 µg/mL (≈ 1.15 µM)

O=C(NCCOc1ccccc1)n1cnc2ccc(C(F)(F)F)cc21 [Example 46b, N-(2-phenoxyethyl)-6-(trifluoromethyl)-1H-benzo[d]imidazole-1-carboxamide]
IC50 (acid ceramidase): < 200 nM
solubility [1]: 0.3 µg/mL (≈ 0.859 µM)

O=C(NCCOc1ccc(F)cc1)n1cnc2ccccc21 [Example 47, N-(2-(4-Fluorophenoxy)ethyl)-1H-benzo[d]imidazole-1-carboxamide]
IC50 (acid ceramidase): < 200 nM
solubility [1]: 4.3 µg/mL (≈ 14.4 µM)

CC(C)OCCNC(=O)n1cnc2ccccc21 [Example 48, N-(2-iso-Propoxyethyl)-1H-benzo[d]imidazole-1-carboxamide]
IC50 (acid ceramidase): 200 to 1000 nM
solubility [1]: 15.4 µg/mL (≈ 62.3 µM)

CCCCNC(=O)n1cnc2cc(C(F)(F)F)ccc21 [Example 49a, N-Butyl-5-(trifluoromethyl)-1H-benzo[d]imidazole-1-carboxamide]
IC50 (acid ceramidase): < 200 nM
solubility [1]: 15.6 µg/mL (≈ 54.7 µM)

CCCCNC(=O)n1cnc2ccc(C(F)(F)F)cc21 [Example 49b, N-butyl-6-(trifluoromethyl)-1H-benzo[d]imidazole-1-carboxamide]
IC50 (acid ceramidase): < 200 nM
solubility [1]: 12.6 µg/mL (≈ 44.2 µM)

COc1ccnc2c1ncn2C(=O)NCCc1ccccc1 [Example 50, 7-Methoxy-N-phenethyl-3H-imidazo[4,5-b]pyridine-3-carboxamide]
IC50 (acid ceramidase): 200 to 1000 nM
solubility [1]: 9.5 µg/mL (≈ 32.1 µM)

CCCCNC(=O)n1cnc2cc(OC)ccc21 [Example 51a, N-Butyl-5-methoxy-1H-benzo[d]imidazole-1-carboxamide]
IC50 (acid ceramidase): < 200 nM
solubility [1]: 7.2 µg/mL (≈ 29.1 µM)

CCCCNC(=O)n1cnc2ccc(OC)cc21 [Example 51b, N-butyl-6-methoxy-1H-benzo[d]imidazole-1-carboxamide]
IC50 (acid ceramidase): < 200 nM
solubility [1]: 8.5 µg/mL (≈ 34.4 µM)

CCCCNC(=O)n1cnc2c(OC)cccc21 [Example 52, N-Butyl-4-methoxy-1H-benzo[d]imidazole-1-carboxamide]
IC50 (acid ceramidase): < 200 nM
solubility [1]: 23.2 µg/mL (≈ 93.8 µM)

O=C(NCCc1ccccc1)n1cnc2ncc(C(F)(F)F)cc21 [Example 53, N-Phenethyl-6-(trifluoromethyl)-1H-imidazo[4,5-b]pyridine-1-carboxamide]
IC50 (acid ceramidase): < 200 nM
solubility [1]: 4.7 µg/mL (≈ 14.1 µM)

CN1CCC(c2cc(C(F)(F)F)cc3c2ncn3C(=O)NCCc2ccccc2)CC1 [Example 54, 4-(1-Methylpiperidin-4-yl)-N-phenethyl-6-(trifluoromethyl)-1H-benzo[d]imidazole-1-carboxamide]
IC50 (acid ceramidase): < 200 nM
solubility [1]: 22.7 µg/mL (≈ 52.7 µM)
